# Source: US20020010182A1, “Piperazine derivatives as tachykinin antagonists” (FUJISAWA PHARMACEUTICAL CO., LTD., priority 1995, published 2002)
# Columns and labels:
# emesis in the ferret = experiment: Emesis in the ferret (copper sulfate induced); type: in vivo; settings: i.p. dose of 3.2 and/or 10 mg/kg, 30 min before intra-gastric copper sulfate (40 mg/kg/ml); retching and vomiting observed for 30 min
# Protocol: Individually housed adult male ferrets (Marshall Farms, 1.4 to 2.2 kg) were given an i.p. injection of a solution containing a test compound 30 Min later the emetic responses (retching and vomiting) were induced by administration of intra-gastric copper sulfate (40 mg/kg/ml) and observed for the next 30 min. The timing and number of retches and vomits observed were recorded for each animal. An individual animal was tested with at least 10 days between experiments.
# h-NK1 receptors = target: T1, h-NK1 receptors (Homo sapiens, UniProt P25103); experiment: Evaluation of NK1 antagonist transport efficiency to the central nervous system using a h-NK1 receptor binding assay; settings: 5 min, brain extract of male SD rats 5 min after i.v. injection of test compound, CHO cell membranes expressing h-NK1, read-out: inhibition rate of 125I-BH-Substance P binding to h-NK1 receptors
# T1 construct: expressed in transfected cells; host or cells: CHO cells (permanent expression), crude cell membranes
# Protocol: A. Evaluation of NK1 Antagonist Transport Efficiency to the Cental Nervous System Using a h-NK1 Receptor Binding Assay
# (1) Administration of Test Compound and Extraction of the Compound From Brain
# Male SD rats were given an i.v. injection of a solution containing a test compound (1 mg/kg). 5 Min later the animals were anesthetized by ether, bled and perfused through the aorta ascendens with 20 ml of saline. The brain was rapidly removed, weighed and homogenized in 4 vol. ice-cold distilled water by using Polytoron (KINEMATICA). To extract the test compound, 500 μl of the homogenate, 100 μl of methanol, 500 μl of 0.1 N NaOH and 4 ml of ethyl acetate were mixed by shaking for 10 min at room temperature. The organic phase (2.5 ml) was recovered by centrifugation at 3,000 rpm for 10 min, dried and dissolved in dimethyl sulfoxide.
# (2) h-NK1 Receptor Binding Assay
# (a) Crude CHO Cell Membrane Preparation
# CHO cells permanently expressing h-NK1 receptors were harvested and homogenized with a Dounce homogenizer at 4° C. in a buffer (0.25 M sucrose, 25 mM Tris-HCl (pH 7.4), 10 mM MgCl2, 1 mM EDTA, 5 μg/ml p-APMSF). The homogenate was centrifuged (500×g, 10 min), and the pellet was resuspended in the same buffer, homogenized, and centrifuged. The two supernatants were combined and centrifuged (100,000×g, 1 hour). The crude cell membranes thus isolated were resuspended in a buffer (25 MM Tris-HCl (pH 7.4), 10 mM MgCl2, 1 mM EDTA, 5 μg/ml p-APMSF) and stored at −80° C. until use.
# (b) ^125I-BH-Substance P Binding to the Prepared Membrane
# Cell membranes (6 μg/ml) were incubated with ^125I-BH-Substance P (0.1 nM) with or without the extracted compounds in 0.25 ml of a medium (50 mM Tris-HCl (pH 7.4), 5 mM MnCl2, 20 μg/ml chymrostatin, 40 μg/ml bacitracin, 4 μg/ml leupeptin, 5 μg/ml p-APMSF, 200 μg/ml BSA) at 22° C. for 90 min. At the end of the incubation period, the contents were quickly filtered through a Blue Mat 11740 filter (pretreated with 0.1% polyethylenimine for 3 hours prior to use) by using SKATRON Cell Harvester. The filter was then washed with a washing buffer (50 mM Tris-HCl (pH 7.4), 5 mM MnCl2) . The radioactivity was counted by using an auto gamma counter (Packard RIASTAR 5420A). All data presented are specific binding defined as that displaceable by 3 μM unlabeled Substance P.
# T1 sequence (P25103 whole entry): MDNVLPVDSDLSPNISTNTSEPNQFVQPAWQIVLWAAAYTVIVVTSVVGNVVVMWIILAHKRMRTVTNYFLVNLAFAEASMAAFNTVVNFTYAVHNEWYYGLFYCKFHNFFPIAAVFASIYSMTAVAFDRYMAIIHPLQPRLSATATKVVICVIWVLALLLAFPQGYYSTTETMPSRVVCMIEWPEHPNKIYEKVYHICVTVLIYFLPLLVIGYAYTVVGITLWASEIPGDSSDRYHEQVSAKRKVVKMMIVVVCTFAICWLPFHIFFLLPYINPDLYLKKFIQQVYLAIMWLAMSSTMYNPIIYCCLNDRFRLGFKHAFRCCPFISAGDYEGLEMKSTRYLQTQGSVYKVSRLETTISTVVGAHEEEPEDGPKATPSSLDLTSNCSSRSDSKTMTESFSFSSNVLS
inhibition at 1 mg/kg (h-NK1 receptors) [%],melting point,Compound,inhibition rate of emesis in the ferret (emesis in the ferret) [%]
> 80,,"Cl.Cl.O=C(c1cc(C(F)(F)F)cc(C(F)(F)F)c1)N1CCN(CCCN2CCSCC2)C[C@H]1Cc1c[nH]c2ccccc12 [Example 23, (2R)-1-[3,5-bis(trifluoromethyl)benzoyl]-2-(1H-indol-3-ylmethyl)-4-(3-thiomorpholinopropyl) piperazine dihydrochloride]",100
> 80,180 °C (dec.),"Cl.Cl.O=C(c1cc(C(F)(F)F)cc(C(F)(F)F)c1)N1CCN(CC#CCN2CCSCC2)C[C@H]1Cc1ccc(F)cc1 [84-(1), (2R)-1-[3,5-Bis(trifluoromethyl)benzoyl]-2-(4-fluorobenzyl)-4-(4-thiomorpholino-2-butynyl) piperazine dihydrochloride]",
> 80,150 to 165 °C,"COCC1CN(CC#CCN2CCN(C(=O)c3cc(C(F)(F)F)cc(C(F)(F)F)c3)[C@H](Cc3ccc(C)c(C)c3)C2)CCO1.Cl.Cl (stereo partly drawn) [59-(1), (2R)-1-[3,5-Bis(trifluoromethyl)benzoyl]-2-(3,4-dimethylbenzyl)-4-[4-(2-methoxymethylmorpholino)-2-butynyl]piperazine dihydrochloride]",
> 80,235 to 238 °C,"Cc1ccc(C[C@@H]2CN(CCCCCN3CCOCC3)CCN2C(=O)c2cc(C(F)(F)F)cc(C(F)(F)F)c2)cc1C.Cl.Cl [Example 74, (2R)-1-[3,5-Bis(trifluoromethyl)benzoyl]-2-(3,4-dimethylbenzyl)-4-(5-morpholinopentyl) piperazine dihydrochloride]",
> 80,166 to 170 °C,"Cl.Cl.O=C(c1cc(C(F)(F)F)cc(C(F)(F)F)c1)N1CCN(CC#CCN2CCSCC2)C[C@H]1Cc1c[nH]c2ccccc12 [Example 37-(4), (2R)-4-(4-Thiomorpholino-2-butynyl)-1-[3,5-bis (trifluoromethyl)benzoyl]-2-(1H-indol-3-ylmethyl) piperazine dihydrochloride]",
> 80,236 to 242 °C,"Cc1ccc(C[C@@H]2CN(C/C=C/CN3CCOCC3)CCN2C(=O)c2cc(C(F)(F)F)cc(C(F)(F)F)c2)cc1C.Cl.Cl [Example 75, (2R)-1-[3,5-bis(trifluoromethyl)benzoyl]-2-(3,4-dimethylbenzyl)-4-[(E)-4-morpholino-2-butenyl]piperazine dihydrochloride]",
> 80,122 to 136 °C,"Cl.Cn1cc(CN2CCN(C(=O)c3cc(C(F)(F)F)cc(C(F)(F)F)c3)[C@H](Cc3c[nH]c4ccccc34)C2)cn1 [Example 77, (2R)-1-[3,5-bis (trifluoromethyl)benzoyl]-2-(1H-indol-3-ylmethyl)-4-[(1-methyl-1H-pyrazol-4-yl)methyl]piperazine hydrochloride]",
> 80,222 °C (dec.),"COCCN(C)CCN1CCN(C(=O)c2cc(C(F)(F)F)cc(C(F)(F)F)c2)[C@H](Cc2ccc(C)c(C)c2)C1.Cl.Cl [Example 67-(13), (2R)-1-[3,5-Bis(trifluoromethyl)benzoyl]-2-(3,4-dimethylbenzyl)-4-[2-[N-(2-methoxyethyl) -N-methylamino]ethyl]piperazine dihydrochloride]",
> 80,261.5 °C,"Cc1ccc(C[C@@H]2CN(CCN3CCSCC3)CCN2C(=O)c2cc(C(F)(F)F)cc(C(F)(F)F)c2)cc1C.Cl.Cl [Example 37-(8), (2R)-4-(2-Thiomorpholinoethyl)-1-[3,5-bis (trifluoromethyl)benzoyl]-2-(3,4-dimethylbenzyl) piperazine dihydrochloride]",
> 80,220 to 230 °C,"Cc1ccc(C[C@@H]2CN(CCCN3CCOCC3)CCN2C(=O)c2cc(C(F)(F)F)cc(C(F)(F)F)c2)cc1C.Cl.Cl [53-(1), (2R)-1-[3,5-Bis(trifluoromethyl)benzoyl]-2-(3,4-dimethylbenzyl)-4-(3-morpholinopropyl) piperazine dihydrochloride]",
> 80,243 to 246 °C,"Cc1ccc(C[C@@H]2CN(C/C=C\CN3CCOCC3)CCN2C(=O)c2cc(C(F)(F)F)cc(C(F)(F)F)c2)cc1C.Cl.Cl [Example 72, (2R)-1-[3,5-Bis(trifluoromethyl)benzoyl]-2-(3,4-dimethylbenzyl)-4-[(Z)-4-morpholino-2-butenyl]piperazine dihydrochloride]",
> 80,243 to 244 °C,"Cc1ccc(C[C@@H]2CN(Cc3cnn(C)c3)CCN2C(=O)c2cc(C(F)(F)F)cc(C(F)(F)F)c2)cc1C.Cl [Example 51, (2R)-1-[3,5-bis(trifluoromethyl)benzoyl]-2-(3,4-dimethylbenzyl)-4-[(1-methyl-1H-pyrazol-4-yl)methyl]piperazine hydrochloride]",
,,"Cc1ccc(C[C@@H]2CN(CCN3CCOCC3)CCN2C(=O)c2cc(C(F)(F)F)cc(C(F)(F)F)c2)cc1C.Cl.Cl [37-(5), (2R)-4-(2-Morpholinoethyl)-1-[3,5-bis(trifluoromethyl)benzoyl]-2-(3,4-dimethylbenzyl)piperazine dihydrocloride]",100
> 80,210 °C (dec.),"CC1(C)COCCN1CC=CCN1CCN(C(=O)c2cc(C(F)(F)F)cc(C(F)(F)F)c2)[C@H](Cc2c[nH]c3ccccc23)C1.Cl.Cl [Example 86, (2R) -1-[3,5-Bis(trifluoromethyl)benzoyl]-2-(1H-indol-3-ylmethyl)-4-[4-(3,3-dimethylmorpholino)-2-butenyl]piperazine dihydrochloride]",
> 80,123 to 128 °C,"Cl.Cl.O=C(c1cc(C(F)(F)F)cc(C(F)(F)F)c1)N1CCN(C/C=C/CN2CCOCC2)C[C@H]1Cc1c[nH]c2ccccc12 [Example 76, (2R)-1-[3,5-Bis(trifluoromethyl)benzoyl]-2-(1H-indol-3-ylmethyl)-4-[(E)-4-morpholino-2-butenyl]piperazine dihydrochloride]",
> 80,> 230 °C,"Cl.Cl.O=C(c1cc(C(F)(F)F)cc(C(F)(F)F)c1)N1CCN(C/C=C/CN2CCOCC2)C[C@H]1Cc1ccc2ccccc2c1 [62-(1), (2R)-1-[3,5-Bis(trifluoromethyl)benzoyl]-2-(2-naphthylmethyl)-4-[(E)-4-morpholino-2-butenyl]piperazine dihydrochloride]",
> 80,279 °C,"Cc1ccc(C[C@@H]2CN(CCCCN3CCOCC3)CCN2C(=O)c2cc(C(F)(F)F)cc(C(F)(F)F)c2)cc1C.Cl.Cl [Example 54, (2R)-1-[3,5-bis(trifluoromethyl)benzoyl]-2-(3,4-dimethylbenzyl)-4-(4-morpholinobutyl) piperazine dihydrochloride]",
> 80,150 to 160 °C,"Cc1ccc(C[C@@H]2CN(CC#CCN3CCOCC3C)CCN2C(=O)c2cc(C(F)(F)F)cc(C(F)(F)F)c2)cc1C.Cl.Cl (stereo partly drawn) [Example 58, (2R)-1-[3,5-bis(trifluoromethyl)benzoyl]-2-(3,4-dimethylbenzyl)-4-[4-(3-methylmorpholino)-2-butynyl]piperazine dihydrochloride]",
> 80,,"CC(=O)c1ccc(C(=O)N2CCN(C(=O)c3cc(C(F)(F)F)cc(C(F)(F)F)c3)[C@H](Cc3ccc(Cl)c(Cl)c3)C2)cc1 [Example 12, (2R)-4-(4-acetylbenzoyl)-1-[3,5-bis (trifluoromethyl)benzoyl]-2-(3,4-dichlorobenzyl)piperazine]",100
